Experimental data published in ChEMBL document CHEMBL5505988, “Thiadiazole-, selenadiazole- and triazole-fused anthraquinones as G-quadruplex targeting anticancer compounds” (Eur J Med Chem, 2024).

System: K562
Assay: Induction of cell cycle arrest in human K562 cells assessed as accumulation of cells at G0/G1 phase at 8 uM after 48 hrs by propidium iodide staining based flow cytometry (reference value: 47.1%)
Assay type: functional

Structure (SMILES): Cl.Cl.NCCNc1c2c(c(NCCN)c3n[se]nc13)C(=O)c1ccccc1C2=O
- Activity: 23.3%
